According to US20060040924A1, “Derivatives of aryl (or heteroaryl) azolylcarbinols for the treatment of renal colic” (Laboratorios Dr. Esteve S.A., priority 2004, published 2006):

System: patients presenting with acute pain from suspected renal colic
Assay: Clinical Study A: analgesic efficacy and safety of cizolirtine citrate versus sodium metamizol, single intravenous dose
Format: in vivo, human
Conditions: for proportion of patients showing complete pain relief / proportion of patients showing satisfactory pain relief (decrease of pain intensity ≧50%): VAS at t+30 min; for Pain in the VAS at t + 30 min (LSM [SEM]), primary efficacy endpoint: per protocol population, 100 mm VAS, 30 min after start of single iv infusion (350 mg cizolirtine citrate or 2,500 mg sodium metamizol), adjusted means; for number of adverse events: per treatment group (32 randomized each), vomits and one episode of fever, all mild or moderate, none serious
Protocol: Objectives: to compare the analgesic efficacy and safety of cizolirtine citrate, an inhibitor of the release of the substance P, versus sodium metamizol to treat acute pain. Method: sixty four patients presenting with acute pain from suspected renal colic were randomized to a single intravenous dose of either 350 mg of cizolirtine citrate or 2,500 mg of sodium metamizol. Pain was assessed throughout 6 hours by means of visual analogical (VAS) and categorical scales. Results: renal colic was confirmed in all patients randomized. After 30 minutes, pain adjusted mean scores (100 mm VAS) were (LSM±SEM) 39.203±4.4 mm and 30.155±4.2 mm. In the cizolirtine and metamizol groups, respectively (p=0.1203). […] However, efficacy was lower than that of the comparator, an established treatment.
Study population: Subjects of either sex aged between 18 and 65 years old suffering moderate to severe pain due to a suspected renal colic starting within previous 24 hour and having a urine dipstick test positive for haematuria. Since this was an exploratory pilot phase II study, a formal sample size calculation was not performed. Moreover, no previous information regarding a comparison between the effects of sodium metamizol and placebo as analgesics for the management of renal colic could be found. Therefore, a minimum effect size to establish a non-inferiority margin was not be established. Nevertheless, to detect a difference of at least 25 mm in pain intensity measured with the VAS assuming a common standard deviation of 36.1 by means of a one-sided t test, 26 patients per group were necessary. Considering a dropout rate of 20%, 64 patients were recruited in the study
Study treatments: Either one single 350 mg dose of cizolirtine citrate or one single 2,500 mg dose of sodium metamizol by slow intravenous infusion in 15 minutes in a double-blind and randomized fashion and in a 1:1 proportion. Rescue doses of butorphanol were given as needed but were not allowed during the first 30 minutes.
Measurements: Patients ranked their pain intensity on both a visual analogical scale (VAS) and a verbal categorical scale at baseline and 15, 30 and 45 minutes and 1, 2, 3, 4, […] after receiving the study drug. Vital signs were determined also at 15, 30 and 45 minutes and at 1 and 6 hours. Active questioning for adverse events since receiving study medication was done after 2 hours. Confirmatory diagnosis of an ureteral stone had to be established before the end of the study.
Primary endpoint: mean pain intensity as determined by the VAS 30 minutes after the start of study drug administration (t+30 min).
Statistics: Demographic and baseline continuous variables values were compared between treatment groups by means of a t test. Primary efficacy analyses were performed in the per protocol population. An analysis of covariance model with the factors treatment, centre and the treatment by centre interaction and considering the baseline value as a covariate was used or the comparison between the groups. In addition, the bilateral 95% confidence interval was calculated for the difference between treatments.
The proportions of patients with complete and satisfactory pain relief between treatments at t+30 min were compared between treatment groups by means of a chi-square test and also the bilateral 95% confidence intervals for the differences were calculated. The time-treatment variables were evaluated by means of the Kaplan-Meier method and the log-rank test was used to compare the treatment groups, pain intensity differences as determined by means of the visual analogical scale (APID), pain intensity differences as determined by means of the categorical scale (CPID) and relief of pain as determined by means of the categorical scale on pain relief (PAR) from baseline to t+30 min were compared between treatment groups by means of a repeated measures analysis of variance. […]

[1] = 30 min after start of single iv dose, versus baseline

Structure (SMILES) | mean decrease in pain intensity (VAS) at t+30 min [1] [%] | mean reductions in pain intensity determined by the VAS at t+30 min [1] [mm] | proportion of patients showing complete pain relief [%] | proportion of patients showing satisfactory pain relief (decrease of pain intensity ≧50%) [%] | Pain in the VAS at t + 30 min (LSM [SEM]), primary efficacy endpoint [mm] | Pain in the VAS at t + 30 min (LSM [SEM]), primary efficacy endpoint (listed as metamizol) [mm] | number of adverse events | onset of analgesia relative to comparator (time-curves APID, CPID, PAR) (difference disappears after 2 hours)
Cc1c(N(C)CS(=O)(=O)[O-])c(=O)n(-c2ccccc2)n1C.[Na+] [Metamizol, sodium metamizol] | 69.1 | 57.1 | 56.3 | 75.0 | 30.155 | 30.155±4.2 | 3 | 
CN(C)CCO[C@H](c1ccccc1)c1ccnn1C.O=C(O)CC(O)(CC(=O)O)C(=O)O (racemic) [Cizolirtine, (±)-5-{α-[2-(dimethylamino)ethoxy]benzyl}-1-methyl-1H-pirazole citrate] | 57.2 |  | 48.4 | 64.5 | 39.203±4.4 |  | 3 | deferred with respect to that provided by metamizol
